Among the test systems are A549 NSCLC; BT-549 breast; EKVX NSCLC; HCT-116 colon; HL-60(TB) leukemia; LOX IMVI melanoma; MCF7 breast; NCI-H23 lung; OVCAR-4 ovarian; SK-MEL-2 melanoma; SK-MEL-28 melanoma; SK-MEL-5 melanoma; T-47D breast; UACC-257 melanoma; COLO 205 colon; MDA-MB-231 breast.
Experiment in all cases: NCI anticancer screen, dose series, 48 h

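Values below derive from 48-hour exposures of cells grown in 96-well plates, with endpoints linearly interpolated between the two concentrations bracketing the appropriate inhibition level. GI50: concentration for 50% inhibition of growth. TGI is the concentration that stops growth completely.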

For the molecule `O=C(/C=C/c1ccco1)CC(=O)/C=C/c1ccco1`, the TGI in the assay on A549 NSCLC was 24.5 µM; with BT-549 breast, 55.4 µM; in the assay with EKVX NSCLC, above 31.6 µM; in the assay on HCT-116 colon, 17.4 µM; with HL-60(TB) leukemia, 11.7 µM; in the assay with LOX IMVI melanoma, 13.8 µM. Besides, the TGI with MCF7 breast is 19.2 µM; in the assay with NCI-H23 lung it was 17.4 µM; in the assay on OVCAR-4 ovarian, above 31.6 µM; in the assay on SK-MEL-2 melanoma it was 22.2 µM; in the assay with SK-MEL-28 melanoma it was 17.5 µM; in the assay with SK-MEL-5 melanoma, 18.1 µM. Moreover, the TGI is above 31.6 µM with T-47D breast and above 100 µM in the assay with UACC-257 melanoma.

In the case of `FC(F)(Sc1ccccc1)c1nc2ccccc2o1`, the TGI in the assay with A549 NSCLC, in the assay on BT-549 breast, in the assay on COLO 205 colon, in the assay on HCT-116 colon, in the assay with MCF7 breast and in the assay on MDA-MB-231 breast was above 100 µM each time. In addition, the TGI in the assay on NCI-H23 lung, in the assay on OVCAR-4 ovarian, with SK-MEL-2 melanoma, in the assay on SK-MEL-28 melanoma, with SK-MEL-5 melanoma and with T-47D breast was above 100 µM throughout. The molecule further displayed a TGI in the assay with UACC-257 melanoma above 100 µM.

`CCCCn1c2c(n(CCCC)c1=S)-c1c(n(CCCC)c(=S)n1CCCC)SSSS2`: the TGI is above 95.1 µM with A549 NSCLC; 28.1 µM with BT-549 breast; 1.68 µM with COLO 205 colon; 23.2 µM in the assay on EKVX NSCLC; 11.8 µM in the assay with HCT-116 colon; 12.1 µM with LOX IMVI melanoma. In addition, the TGI in the assay on MCF7 breast is above 100 µM; in the assay with MDA-MB-231 breast, 2.28 µM; in the assay on NCI-H23 lung it was 14.3 µM; with OVCAR-4 ovarian, 9.6 µM; with SK-MEL-2 melanoma it was 6.8 µM; with SK-MEL-28 melanoma, 31.6 µM. In addition, the TGI in the assay with SK-MEL-5 melanoma was found to be 8.95 µM; with T-47D breast, 1.82 µM; in the assay on UACC-257 melanoma, 9.13 µM.

`CC(C)(C)C(=O)C(C(c1ccccc1)N1CCOCC1)N1CCOCC1` (stereo unspecified): the TGI in the assay on A549 NSCLC, in the assay on BT-549 breast, in the assay with EKVX NSCLC, in the assay with HCT-116 colon, in the assay on LOX IMVI melanoma and with MDA-MB-231 breast was above 100 µM in each case. Moreover, the TGI with NCI-H23 lung, in the assay on OVCAR-4 ovarian, in the assay with SK-MEL-2 melanoma, in the assay with SK-MEL-28 melanoma, in the assay on T-47D breast and in the assay on UACC-257 melanoma was above 100 µM throughout.

As for `Cc1n[nH]c(=O)n1/N=C/c1c[nH]c2ccccc12`, the TGI with A549 NSCLC, with BT-549 breast, in the assay on COLO 205 colon, in the assay on EKVX NSCLC, in the assay on HCT-116 colon and with MCF7 breast was above 100 µM each time. The TGI with MDA-MB-231 breast, in the assay on NCI-H23 lung, in the assay with OVCAR-4 ovarian, in the assay with SK-MEL-2 melanoma, in the assay on SK-MEL-28 melanoma and with T-47D breast was above 100 µM in each case. In the assay with UACC-257 melanoma, the TGI was above 100 µM.

On to `O=[N+]([O-])c1cc(Cl)cc2cc(Cl)cnc12`, for which the TGI with A549 NSCLC, in the assay on BT-549 breast, in the assay on COLO 205 colon, with EKVX NSCLC, in the assay with HCT-116 colon and in the assay on HL-60(TB) leukemia was above 100 µM in each case. For the same molecule, the TGI with LOX IMVI melanoma, in the assay with MDA-MB-231 breast, in the assay with NCI-H23 lung, in the assay with OVCAR-4 ovarian, in the assay on SK-MEL-28 melanoma and in the assay with SK-MEL-5 melanoma was above 100 µM in each case. Moreover, the TGI with T-47D breast was 97.2 µM; in the assay on UACC-257 melanoma, above 100 µM.

In the case of `CC(=O)Oc1cc2c(cc1OC(C)=O)[C@H]1CC[C@]3(C)[C@@H](OC(C)=O)CC[C@H]3[C@@H]1CC2`, the TGI in the assay on A549 NSCLC came to 24.2 µM; in the assay on BT-549 breast, 11.2 µM; with COLO 205 colon, 15.5 µM; with EKVX NSCLC, 9.64 µM; in the assay with HCT-116 colon, 18.5 µM; in the assay with LOX IMVI melanoma, 16.6 µM. Also, the TGI worked out at 20.9 µM in the assay on MCF7 breast; 26.3 µM in the assay on MDA-MB-231 breast; 22.9 µM in the assay on NCI-H23 lung; 19.7 µM in the assay on OVCAR-4 ovarian; 16.1 µM in the assay on SK-MEL-2 melanoma; 19.7 µM in the assay with SK-MEL-28 melanoma. Also, the TGI in the assay on SK-MEL-5 melanoma was determined as 20.4 µM; with T-47D breast it was 22.2 µM; with UACC-257 melanoma, 22.4 µM. The GI50 in the assay on HCT-116 colon is 5.08 µM.

As for `OC1CN2CCS[C@H]2C(O)C1O` (stereo partly specified), the TGI in the assay on A549 NSCLC, with BT-549 breast, in the assay with COLO 205 colon, in the assay on EKVX NSCLC, in the assay with HCT-116 colon and in the assay with HL-60(TB) leukemia was above 100 µM each time. Besides, the TGI with LOX IMVI melanoma, with MDA-MB-231 breast, with NCI-H23 lung, with OVCAR-4 ovarian, in the assay on SK-MEL-2 melanoma and with SK-MEL-28 melanoma was above 100 µM in each case. Further, the TGI with SK-MEL-5 melanoma, in the assay on T-47D breast and in the assay on UACC-257 melanoma was above 100 µM in each case.

Regarding `O=C(O)c1ccc(C(c2c(O)c3ccccc3oc2=O)c2c(O)c3ccccc3oc2=O)cc1`, the TGI in the assay on A549 NSCLC is above 100 µM; with BT-549 breast, above 100 µM; in the assay with COLO 205 colon, above 100 µM; with HCT-116 colon, above 100 µM; with HL-60(TB) leukemia, 0.129 µM; in the assay with LOX IMVI melanoma, above 100 µM. Further, the TGI in the assay on MCF7 breast, in the assay on MDA-MB-231 breast, in the assay on NCI-H23 lung, with SK-MEL-2 melanoma, in the assay with SK-MEL-28 melanoma and with SK-MEL-5 melanoma was above 100 µM each time. The TGI with T-47D breast and in the assay with UACC-257 melanoma was above 100 µM each time.

Turning to `Cc1c2c(n(Cc3ccccn3)c1C)NN=C(C#N)S2(=O)=O`, the TGI in the assay with A549 NSCLC, in the assay with BT-549 breast, with COLO 205 colon, with EKVX NSCLC, with HCT-116 colon and in the assay on LOX IMVI melanoma was above 100 µM each time. Further, the TGI with MCF7 breast, in the assay with MDA-MB-231 breast, in the assay on NCI-H23 lung, with OVCAR-4 ovarian, in the assay on SK-MEL-2 melanoma and in the assay with SK-MEL-28 melanoma was above 100 µM in each case. Also, the TGI in the assay on SK-MEL-5 melanoma, in the assay on T-47D breast and in the assay with UACC-257 melanoma was above 100 µM in each case.

These data come from PubChem BioAssay (NCI).
